In patent US9526785B2, “Pharmaceuticals for oral delivery” (Enteris BioPharma, Inc., priority 2013, dated 2016):
Converted amounts (≈) assume the structure as drawn.

Tests used:
[1] = Tigecycline plasma PK after IV bolus in anesthetized rats; type: in vivo; settings: female, Sprague-Dawley, rat
Method: Naïve, female Sprague-Dawley Rats (Taconic Farms, Germantown, N.Y.) housed in groups of three were maintained in a climate-controlled room on a 12:12 h light-dark cycle with food and water available ad libitum. Animals weighed approximately 250 g at the time of testing. Rats were fasted overnight (with water available), prior to dosing. Tigecycline stock was prepared fresh on the day of each study in water and diluted in the indicated formulations.
Intravenous (IV) doses were administered as a bolus injection into the left carotid […] at a dose volume of 1.6 mL/kg. Intraduodenal doses were administered as bolus injections into the duodenum at a dose volume of 1.2 mL/kg.
Female rats were maintained in groups of 3 per polycarbonate (or equivalent) shoebox cage with fresh wood chip bedding at 20-22° C. under a 12 hour on/off light:dark cycle. The rats were fasted overnight prior to surgery and anesthetized by intramuscular injection of 0.3 mL fresh ketamine (67 mg/mL)/xylazine (42 mg/mL) in 0.9% saline into the hind flank. After the rats went limp they were injected intraperitoneally (IP) with 0.1 mL ketamine/xylazine. The anesthetic state was maintained by IP injection of ketamine/xylazine on an as needed basis. Animal weights were determined post-anesthesia induction.
An indwelling catheter for blood sampling was inserted into the right carotid artery by exposing the trachea with Mayo scissors, clamping the bottom of the […] and tying off the top with surgical suture. The area between was nicked with small sharp scissors and Intramedic polyethylene tubing was inserted into the nicked area. The artery with the tubing was sealed with suture to prevent leakage. A 23-gauge Intramedic Luer Stub Adapter was inserted into the cannula and attached to a 3 way valve which was connected to a 3 cc syringe filled with 0.9% normal saline and a 1 cc syringe filled with 5 U/mL sodium heparin for blood sampling.
Blood samples were collected in tubes containing 20 μL 180 mM EDTA. The tubes were maintained on ice and then centrifuged at approximately 3000 rpm at 4° C. for 5 minutes. Plasma was harvested immediately after centrifugation of the samples and stored at −20° C. pending analysis.
Minocycline (VWR international) was used as an internal standard. Sample processing/clean-up of plasma samples was carried out offline by protein precipitation with acidified acetonitrile.
The HPLC system consisted of Shimadzu SIL-HTc HPLC system equipped with dual Shimadzu LC-10ADvp isopumps, a Shimadzu CTO-10ASvp column temperature controller and a Shimadzu SPD-10Avp variable wavelength detector. […] Mobile phase A consisted of 23 mM phosphate buffer pH 2.5 with 6 mM 1-octanesulfonic acid, while mobile phase B consisting of pure acetonitrile. […] The mobile phase flow rate was 1.2 mL/min. Detection was performed using the SPD-10Avp variable wavelength detector set at 350 nm, with a sensitivity of 0.001 aufs.
The samples were then centrifuged under refrigeration at 13 k rpm for 30 minutes. The supernatant was taken and the liquid was removed to dryness in a turbovap. The samples were then reconstituted in 55 μL 0.1M phosphate buffer, pH 3.8. Samples were maintained at 10° C. while on the autoinjector during sequence. The injection volume was 50 μL. The unknown concentration in rat plasma samples was determined by interpolation of the peak area ratios of analyte:internal standard versus the ratio of their nominal concentrations into the regression line obtained from calibration standards spiked in pooled rat plasma. No regression weighting was used for the calculations. […] The calibration curve covered the range of 0.05 μg/mL to 5.0 μg/mL.
Due to analytical issues observed in the analyses of earlier study samples, the analytical method was changed slightly for later samples. Mobile phase A was changed to 23 mM phosphate buffer pH 2.5 with 4 mM 1-octanesulfonic acid, while mobile phase B was changed to 90% acetonitrile, 10% water, with 2 mM 1-octanesulfonic acid. […]

[2] = system: Methicillin-Resistant Staphylococcus aureus (MRSA), Stenotrophomonas maltophilia, Haemophilus influenzae, and Neisseria gonorrhoeae; settings: reported values; cited from earlier work
[3] = cited from earlier work
[4] = reported; in humans; cited from earlier work
[5] = IV bolus 0.64 mg/kg, PBS (RA851)

## CN(C)c1cc(NC(=O)CNC(C)(C)C)c(O)c2c1C[C@H]1C[C@H]3[C@H](N(C)C)C(O)=C(C(N)=O)C(=O)[C@@]3(O)C(O)=C1C2=O [Tigecycline]
[1]; [5]
  AUC(0-t): 970 ng·h/mL
  Cmax: 1790 ng/mL
  Tmax: 5 min
  concentration at 0 min: 0 ng/mL
  concentration at 5 min: 1790 ng/mL
  concentration at 10 min: 888 ng/mL
  concentration at 20 min: 447 ng/mL
  concentration at 30 min: 376 ng/mL
  concentration at 60 min: 290 ng/mL
  concentration at 120 min: 216 ng/mL
[1]; IV bolus 0.64 mg/kg, PBS (RA851), 240 min
  concentration at 240 min: 116 ng/mL
[1]; IV bolus 12 mg/kg, PBS (RA853)
  AUC(0-t): 13200 ng·h/mL
  Cmax: 50700 ng/mL
  Tmax: 5 min
  concentration at 0 min: 0 ng/mL
  concentration at 5 min: 50700 ng/mL
  concentration at 10 min: 26200 ng/mL
  concentration at 20 min: 9310 ng/mL
  concentration at 30 min: 5760 ng/mL
  concentration at 60 min: 2610 ng/mL
  concentration at 120 min: 1870 ng/mL
[1]; RA869, IV, 0.6 mg/kg
  AUC(0-t): 132 ng·h/mL
  Cmax: 369 ng/mL
  Tmax: 7.5 min
[2]
  MIC: 2 µg/mL (≈ 3.41 µM)
[3]
  aqueous solubility: approximately 300 mg/mL
[4]
  single dose half-life: approximately 20 hours
